# Molecular target: BCL2 (Homo sapiens (Human), UniProt P10415)
# Experiment: Molecular level activity test of anti-apoptotic protein BCL2 (HTRF, binding to Bim peptide)
# Settings: HTRF, binding of BCL2 to Bim peptide; read-out: BCL2 nM (inhibitory activity, IC50)
# Experimental: The detection of the binding ability between anti-apoptotic protein BCL2 and pro-apoptotic protein Bim was performed using Homogeneous Time-Resolved Fluorescence technology. The reaction of this method occurred in a white shallow 384-well plate, with a total reaction volume of 10 μL. Specifically, it included 2 μL of the compound to be tested (2% DMSO), 4 μL His-tagged recombinant protein, and 4 μL Biotin-tagged BIM protein peptide. After 1 hour of reaction, 5 μL of each Anti-His and streptavidin-tagged XL665 antibody diluents diluted with a detection buffer were added. After incubating at room temperature for 4 hours, the values were read using the Envision multifunctional microplate reader to detect the effect of the compound to be tested on the binding ability of BCL2 to Bim protein peptides.
# Chain of BCL2 (P10415 whole entry): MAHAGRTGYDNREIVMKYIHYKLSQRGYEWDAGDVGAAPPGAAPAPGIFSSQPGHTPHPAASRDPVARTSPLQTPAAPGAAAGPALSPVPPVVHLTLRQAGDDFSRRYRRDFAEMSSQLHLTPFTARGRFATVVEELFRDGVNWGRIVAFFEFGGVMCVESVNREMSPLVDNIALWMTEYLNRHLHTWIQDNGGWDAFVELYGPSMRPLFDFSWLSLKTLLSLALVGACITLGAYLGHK
row,Structure (SMILES),IC50 [nM]
1,"COc1ccc(CN2CCN(C3CC4(CCN(c5ccc(C(=O)NS(=O)(=O)c6cc([N+](=O)[O-])c(NC[C@H]7CC[C@](C)(O)CC7)c7[nH]cnc67)c(Oc6cnc7[nH]cc(F)c7c6)c5)CC4)C3)C(c3ccccc3C(C)C)C2)cn1 (stereo partly shown) [compound 049, 2-((3-fluoro-1H-pyrrolo[2,3-b]pyrid-5-yl)oxy)-N-((7-((((1r,4r)-4-hydroxy-4-methylcyclohexyl)methyl)amino)-6-nitro-1H-benzo[d]imidazol-4-yl)sulfonyl)-4-(2-(2-(2-isopropylphenyl)-4-((6-methoxypyrid-3-yl)methyl)piperazin-1-yl)-7-azaspiro[3.5]non-7-yl)benzamide]",< 10
2,COc1ccc(CN2CCN(C3CC4(CCN(c5ccc(C(=O)NS(=O)(=O)c6cc([N+](=O)[O-])c(NCC7(F)CCN(C(C)C)CC7)c7[nH]cnc67)c(Oc6cnc7[nH]cc(F)c7c6)c5)CC4)C3)C(c3ccccc3C(C)C)C2)cc1 (stereo not shown) [compound 050],< 10
3,"CC(C)c1ccccc1C1CN(C2CCOCC2)CCN1C1CC2(CCN(c3cc(Oc4cnc5[nH]ccc5c4)c(C(=O)NS(=O)(=O)c4ccc(NC[C@H]5CC[C@](C)(O)CC5)c([N+](=O)[O-])c4)cn3)CC2)C1 (stereo partly shown) [compound 051, 4-((1H-pyrrolo[2,3-b]pyrid-5-yl)oxy)-N-((4-((((1r,4r)-4-hydroxy-4-methylcyclohexyl)methyl)amino)-3-nitrophenyl)sulfonyl)-6-(2-(2-(2-isopropylphenyl)-4-(tetrahydro-2H-pyran-4-yl)piperazin-1-yl)-7-azaspiro[3.5]non-7-yl) nicotinamide]",< 10

# The remaining lines, values ahead:
row,IC50 [nM],Structure (SMILES)
1,< 10,"COc1ccc(CN2CCN(C3CC4(CCN(c5ccc(C(=O)NS(=O)(=O)c6cc([N+](=O)[O-])c(NC[C@H]7CC[C@](C)(O)CC7)c7[nH]cnc67)c(Oc6cnc7[nH]ccc7c6)c5)CC4)C3)C(c3ccccc3C(C)C)C2)cn1 (stereo partly shown) [compound 045, 2-((1H-pyrrolo[2,3-b]pyrid-5-yl)oxy)-N-((7-((((1r,4r)-4-hydroxy-4-methylcyclohexyl)methyl)amino)-6-nitro-1H-benzo[d]imidazol-4-yl)sulfonyl)-4-(2-(2-(2-isopropylphenyl)-4-((6-methoxypyrid-3-yl)methyl)piperazin-1-yl)-7-azaspiro[3.5]non-7-yl)benzamide]"
2,< 10,"COc1ccc(CN2CCN(C3CC4(C3)CN(c3ccc(C(=O)NS(=O)(=O)c5cc([N+](=O)[O-])c(NCC6(F)CCN(C(C)C)CC6)c6[nH]cnc56)c(Oc5cnc6[nH]ccc6c5)c3)C4)C(c3ccccc3C(C)C)C2)cc1 (stereo not shown) [compound 046, 2-((1H-pyrrolo[2,3-b]pyrid-5-yl)oxy)-N-((7-(((4-fluoro-1-isopropylpiperid-4-yl)methyl)amino)-6-nitro-1H-benzo[d]imidazol-4-yl)sulfonyl)-4-(6-(2-(2-isopropylphenyl)-4-(4-methoxybenzyl)piperazin-1-yl)-2-azaspiro[3.3]hept-2-yl)benzamide]"
3,< 10,"COc1ccc(CN2CCN(C3CC4(CCN(c5ccc(C(=O)NS(=O)(=O)c6cc([N+](=O)[O-])c(NCC7(F)CCOCC7)c7[nH]cnc67)c(Oc6cnc7[nH]ccc7c6)c5)CC4)C3)C(c3ccccc3C(C)C)C2)cc1 (stereo not shown) [compound 047, 2-((1H-pyrrolo[2,3-b]pyrid-5-yl)oxy)-N-((7-(((4-fluorotetrahydro-2H-pyran-4-yl)methyl)amino)-6-nitro-1H-benzo[d]imidazol-4-yl)sulfonyl)-4-(2-(2-(2-isopropylphenyl)-4-(4-methoxybenzyl)piperazin-1-yl)-7-azaspiro[3.5]non-7-yl)benzamide]"
4,< 10,"COc1ccc(CN2CCN(C3CC4(CCN(c5ccc(C(=O)NS(=O)(=O)c6cc([N+](=O)[O-])c(NCC7(F)CCN(C(C)C)CC7)c7[nH]cnc67)c(Oc6cnc7[nH]ccc7c6)c5)CC4)C3)C(c3ccccc3C(C)C)C2)cc1 (stereo not shown) [compound 048, 2-((1H-pyrrolo[2,3-b]pyrid-5-yl)oxy)-N-((7-(((4-fluoro-1-isopropylpiperid-4-yl)methyl)amino)-6-nitro-1H-benzo[d]imidazol-4-yl)sulfonyl)-4-(2-(2-(2-isopropylphenyl)-4-(4-methoxybenzyl)piperazin-1-yl)-7-azaspiro[3.5]non-7-yl)benzamide]"

# — patent US20250034135A1, “ANTI-APOPTOTIC PROTEIN BCL-2 INHIBITOR, PHARMACEUTICAL COMPOSITION AND USES THEREOF” (HANGZHOU HEALZEN THERAPEUTICS CO., LTD., priority 2021, published 2025)
